Experiments:
Rattus norvegicus [1] = assay: Tested for the diuretic activity by measuring the urinary volume after peroral administering 94.9 uM/Kg of drug in rats; assay type: ADME, organism-based, Urine; conditions: in vivo, po
Rattus norvegicus [2] = assay: Total electrolytic excretion of potassium in urine of rats after peroral administration of 316 uM/Kg of drug; assay type: ADME, organism-based; conditions: in vivo, po
Rattus norvegicus [3] = assay: Total electrolytic excretion of chlorine in urine of rats after peroral administration of 316 uM/Kg of drug; assay type: ADME, organism-based; conditions: in vivo, po
Rattus norvegicus [4] = assay: Ratio of Total electrolytic excretion of sodium and potassium in urine of rats after peroral administration of 94.9 uM/Kg of drug; assay type: ADME, organism-based; conditions: in vivo, po
Rattus norvegicus [5] = assay: Total electrolytic excretion of sodium in urine of rats after peroral administration of 316 uM/Kg of drug; assay type: ADME, organism-based; conditions: in vivo, po
Rattus norvegicus [6] = assay: Total electrolytic excretion of chlorine in urine of rats after peroral administration of 31.6 uM/Kg of drug; assay type: ADME, organism-based; conditions: in vivo, po
Rattus norvegicus [7] = assay: Total electrolytic excretion of potassium in urine of rats after peroral administration of 94.9 uM/Kg of drug; assay type: ADME, organism-based; conditions: in vivo, po
Rattus norvegicus [8] = assay: Tested for the diuretic activity by measuring the urinary volume after peroral administering 316 uM/Kg of drug in rats; assay type: ADME, organism-based, Urine; conditions: in vivo, po
Rattus norvegicus [9] = assay: Total electrolytic excretion of sodium in urine of rats after peroral administration of 94.9 uM/Kg of drug; assay type: ADME, organism-based; conditions: in vivo, po
Rattus norvegicus [10] = assay: Total electrolytic excretion of potassium in urine of rats after peroral administration of 31.6 uM/Kg of drug; assay type: ADME, organism-based; conditions: in vivo, po
Rattus norvegicus [11] = assay: Ratio of Total electrolytic excretion of sodium and potassium in urine of rats after peroral administration of 31.6 uM/Kg of drug; assay type: ADME, organism-based; conditions: in vivo, po
Rattus norvegicus [12] = assay: Tested for the diuretic activity by measuring the urinary volume after peroral administering 31.6 uM/Kg of drug in rats; assay type: ADME, organism-based, Urine; conditions: in vivo, po
Rattus norvegicus [13] = assay: Ratio of Total electrolytic excretion of sodium and potassium in urine of rats after peroral administration of 316 uM/Kg of drug; assay type: ADME, organism-based; conditions: in vivo, po
Rattus norvegicus [14] = assay: Total electrolytic excretion of sodium in urine of rats after peroral administration of 31.6 uM/Kg of drug; assay type: ADME, organism-based; conditions: in vivo, po
Rattus norvegicus [15] = assay: Total electrolytic excretion of chlorine in urine of rats after peroral administration of 94.9 uM/Kg of drug; assay type: ADME, organism-based; conditions: in vivo, po
Rattus norvegicus [16] = assay: Total electrolytic excretion of sodium in urine of rats after peroral administration of 279 uM/Kg of drug; assay type: ADME, organism-based; conditions: in vivo, po
Rattus norvegicus [17] = assay: Total electrolytic excretion of potassium in urine of rats after peroral administration of 83.8 uM/Kg of drug; assay type: ADME, organism-based; conditions: in vivo, po
Rattus norvegicus [18] = assay: Tested for the diuretic activity by measuring the urinary volume after peroral administering 27.9 uM/Kg of drug in rats; assay type: ADME, organism-based, Urine; conditions: in vivo, po
Rattus norvegicus [19] = assay: Total electrolytic excretion of sodium in urine of rats after peroral administration of 27.9 uM/Kg of drug; assay type: ADME, organism-based; conditions: in vivo, po
Rattus norvegicus [20] = assay: Ratio of Total electrolytic excretion of sodium and potassium in urine of rats after peroral administration of 83.8 uM/Kg of drug; assay type: ADME, organism-based; conditions: in vivo, po
Rattus norvegicus [21] = assay: Total electrolytic excretion of sodium in urine of rats after peroral administration of 83.8 uM/Kg of drug; assay type: ADME, organism-based; conditions: in vivo, po
Rattus norvegicus [22] = assay: Total electrolytic excretion of chlorine in urine of rats after peroral administration of 27.9 uM/Kg of drug; assay type: ADME, organism-based; conditions: in vivo, po
Rattus norvegicus [23] = assay: Tested for the diuretic activity by measuring the urinary volume after peroral administering 279 uM/Kg of drug in rats; assay type: ADME, organism-based, Urine; conditions: in vivo, po
Rattus norvegicus [24] = assay: Ratio of Total electrolytic excretion of sodium and potassium in urine of rats after peroral administration of 27.9 uM/Kg of drug; assay type: ADME, organism-based; conditions: in vivo, po
Rattus norvegicus [25] = assay: Tested for the diuretic activity by measuring the urinary volume after peroral administering 83.8 uM/Kg of drug in rats; assay type: ADME, organism-based, Urine; conditions: in vivo, po
Rattus norvegicus [26] = assay: Total electrolytic excretion of chlorine in urine of rats after peroral administration of 279 uM/Kg of drug; assay type: ADME, organism-based; conditions: in vivo, po
Rattus norvegicus [27] = assay: Total electrolytic excretion of potassium in urine of rats after peroral administration of 27.9 uM/Kg of drug; assay type: ADME, organism-based; conditions: in vivo, po
Rattus norvegicus [28] = assay: Total electrolytic excretion of potassium in urine of rats after peroral administration of 279 uM/Kg of drug; assay type: ADME, organism-based; conditions: in vivo, po
Rattus norvegicus [29] = assay: Total electrolytic excretion of chlorine in urine of rats after peroral administration of 83.8 uM/Kg of drug; assay type: ADME, organism-based; conditions: in vivo, po
Rattus norvegicus [30] = assay: Ratio of Total electrolytic excretion of sodium and potassium in urine of rats after peroral administration of 279 uM/Kg of drug; assay type: ADME, organism-based; conditions: in vivo, po
Canis familiaris [31] = assay: Total electrolytic excretion of sodium in urine of dogs after intravenous administration of 11.9 uM/Kg of drug; assay type: ADME, organism-based, Canis lupus familiaris; conditions: dog, in vivo
Rattus norvegicus [32] = assay: Tested for the diuretic activity by measuring the urinary volume after peroral administering 239 uM/Kg of drug in rats; assay type: ADME, organism-based, Urine; conditions: in vivo, po
Canis familiaris [33] = assay: Total electrolytic excretion of potassium in urine of dogs after intravenous administration of 11.9 uM/Kg of drug; assay type: ADME, organism-based, Canis lupus familiaris; conditions: dog, in vivo
Rattus norvegicus [34] = assay: Total electrolytic excretion of chlorine in urine of rats after peroral administration of 239 uM/Kg of drug; assay type: ADME, organism-based; conditions: in vivo, po
Rattus norvegicus [35] = assay: Ratio of Total electrolytic excretion of sodium and potassium in urine of rats after peroral administration of 239 uM/Kg of drug; assay type: ADME, organism-based; conditions: in vivo, po
Rattus norvegicus [36] = assay: Total electrolytic excretion of chlorine in urine of rats after peroral administration of 71.6 uM/Kg of drug; assay type: ADME, organism-based; conditions: in vivo, po
Rattus norvegicus [37] = assay: Total electrolytic excretion of sodium in urine of rats after peroral administration of 71.6 uM/Kg of drug; assay type: ADME, organism-based; conditions: in vivo, po
Rattus norvegicus [38] = assay: Ratio of Total electrolytic excretion of sodium and potassium in urine of rats after peroral administration of 71.6 uM/Kg of drug; assay type: ADME, organism-based; conditions: in vivo, po
Rattus norvegicus [39] = assay: Tested for the diuretic activity by measuring the urinary volume after peroral administering 71.6 uM/Kg of drug in rats; assay type: ADME, organism-based, Urine; conditions: in vivo, po
Rattus norvegicus [40] = assay: Total electrolytic excretion of potassium in urine of rats after peroral administration of 23.9 uM/Kg of drug; assay type: ADME, organism-based; conditions: in vivo, po
Rattus norvegicus [41] = assay: Total electrolytic excretion of chlorine in urine of rats after peroral administration of 23.9 uM/Kg of drug; assay type: ADME, organism-based; conditions: in vivo, po
Canis familiaris [42] = assay: Tested for the diuretic activity by measuring the urinary volume after intravenous administering 11.9 uM/Kg of drug in dogs; assay type: ADME, organism-based, Canis lupus familiaris, Urine; conditions: dog, in vivo
Rattus norvegicus [43] = assay: Tested for the diuretic activity by measuring the urinary volume after peroral administering 23.9 uM/Kg of drug in rats; assay type: ADME, organism-based, Urine; conditions: in vivo, po
Rattus norvegicus [44] = assay: Total electrolytic excretion of potassium in urine of rats after peroral administration of 71.6 uM/Kg of drug; assay type: ADME, organism-based; conditions: in vivo, po
Rattus norvegicus [45] = assay: Ratio of Total electrolytic excretion of sodium and potassium in urine of rats after peroral administration of 23.9 uM/Kg of drug; assay type: ADME, organism-based; conditions: in vivo, po
Rattus norvegicus [46] = assay: Total electrolytic excretion of sodium in urine of rats after peroral administration of 239 uM/Kg of drug; assay type: ADME, organism-based; conditions: in vivo, po
Rattus norvegicus [47] = assay: Total electrolytic excretion of sodium in urine of rats after peroral administration of 23.9 uM/Kg of drug; assay type: ADME, organism-based; conditions: in vivo, po
Canis familiaris [48] = assay: Total electrolytic excretion of chlorine in urine of dogs after intravenous administration of 11.9 uM/Kg of drug; assay type: ADME, organism-based, Canis lupus familiaris; conditions: dog, in vivo
Rattus norvegicus [49] = assay: Ratio of Total electrolytic excretion of sodium and potassium in urine of rats after intravenous administration of 11.9 uM/Kg of drug; assay type: ADME, organism-based; conditions: in vivo
Rattus norvegicus [50] = assay: Total electrolytic excretion of potassium in urine of rats after peroral administration of 239 uM/Kg of drug; assay type: ADME, organism-based; conditions: in vivo, po

## C1CCC(N/C(=N/C2CCCC2)N2CCOCC2)CC1
Rattus norvegicus [1]
  V: 6.3 mL
Rattus norvegicus [2]
  Excretion K+: 0.32 m equiv
Rattus norvegicus [3]
  Excretion Cl-: 1.4 m equiv
Rattus norvegicus [4]
  Ratio: 3.2
Rattus norvegicus [5]
  Excretion Na+: 1.32 m equiv
Rattus norvegicus [6]
  Excretion Cl-: 0.65 m equiv
Rattus norvegicus [7]
  Excretion K+: 0.26 m equiv
Rattus norvegicus [8]
  V: 8.9 mL
Rattus norvegicus [9]
  Excretion Na+: 0.84 m equiv
Rattus norvegicus [10]
  Excretion K+: 0.28 m equiv
Rattus norvegicus [11]
  Ratio: 2.2
Rattus norvegicus [12]
  V: 3.8 mL
Rattus norvegicus [13]
  Ratio: 4.1
Rattus norvegicus [14]
  Excretion Na+: 0.62 m equiv
Rattus norvegicus [15]
  Excretion Cl-: 0.92 m equiv

## Clc1ccccc1N/C(=N/C1CCCCC1)N1CCOCC1
Rattus norvegicus [16]
  Excretion Na+: 1.45 m equiv
Rattus norvegicus [17]
  Excretion K+: 0.29 m equiv
Rattus norvegicus [18]
  V: 6.2 mL
Rattus norvegicus [19]
  Excretion Na+: 0.72 m equiv
Rattus norvegicus [20]
  Ratio: 3.5
Rattus norvegicus [21]
  Excretion Na+: 1.01 m equiv
Rattus norvegicus [22]
  Excretion Cl-: 0.84 m equiv
Rattus norvegicus [23]
  V: 11.2 mL
Rattus norvegicus [24]
  Ratio: 3
Rattus norvegicus [25]
  V: 7.7 mL
Rattus norvegicus [26]
  Excretion Cl-: 1.46 m equiv
Rattus norvegicus [27]
  Excretion K+: 0.24 m equiv
Rattus norvegicus [28]
  Excretion K+: 0.31 m equiv
Rattus norvegicus [29]
  Excretion Cl-: 1.06 m equiv
Rattus norvegicus [30]
  Ratio: 4.7

## Clc1ccc(N/C(=N/C2CCCCC2)N2CCOCC2)cc1Cl
Canis familiaris [31]
  Excretion Na+: 8.5 m equiv
Rattus norvegicus [32]
  V: 13.2 mL
Canis familiaris [33]
  Excretion K+: 1.1 m equiv
Rattus norvegicus [34]
  Excretion Cl-: 1.69 m equiv
Rattus norvegicus [35]
  Ratio: 5.8 [Na+]/[K+]
Rattus norvegicus [36]
  Excretion Cl-: 1.45 m equiv
Rattus norvegicus [37]
  Excretion Na+: 1.41 m equiv
Rattus norvegicus [38]
  Ratio: 4.4 [Na+]/[K+]
Rattus norvegicus [39]
  V: 10.6 mL
Rattus norvegicus [40]
  Excretion K+: 0.27 m equiv
Rattus norvegicus [41]
  Excretion Cl-: 1.17 m equiv
Canis familiaris [42]
  V: 57 mL
Rattus norvegicus [43]
  V: 7.4 mL
Rattus norvegicus [44]
  Excretion K+: 0.32 m equiv
Rattus norvegicus [45]
  Ratio: 4.1 [Na+]/[K+]
Rattus norvegicus [46]
  Excretion Na+: 1.92 m equiv
Rattus norvegicus [47]
  Excretion Na+: 1.1 m equiv
Canis familiaris [48]
  Excretion Cl-: 5.7 m equiv
Rattus norvegicus [49]
  Ratio: 7.4 [Na+]/[K+]
Rattus norvegicus [50]
  Excretion K+: 0.33 m equiv

— ChEMBL document CHEMBL1127385, “Synthesis and diuretic activity of alkyl- and arylguanidine analogs of N,N'-dicyclohexyl-4-morpholinecarboxamidine in rats and dogs” (J Med Chem, 1994)
